This is an account of results in article PMC10318456, “Selective inhibitors of the PSEN1–gamma-secretase complex” (The Journal of Biological Chemistry, 2023).

What all share (assay type): cell-based
Test [1] deals with T1, PSEN2-APH1A γ-secretase complex (Homo sapiens, UniProt P49810+Q92542+Q96BI3+Q9NZ42).
T1 construct: expressed in transfected cells; host or cells: Psen1/2 double KO/Aph1ABC triple KO MEFs, pMSCV retroviral PSEN-IRES-APH1
The test is described as follows: Aβ40 secretion by MEF cell line expressing only PSEN2-APH1A γ-secretase (APP-C99-GFP reporter). To be noted: 8 h, Beerse site unless otherwise indicated, read-out: IC50, Aβ40 peptides. The source says:
(§1) Mouse embryonic fibroblast (MEF) cells deficient for the Psen and Aph1 genes (Psen1/2^−/−, Aph1ABC^−/−) were reconstituted with human PSEN1 or PSEN2 and with human APH1A or APH1B to generate four independent cell lines, each constitutively expressing exclusively one type of γ-secretase complex (Fig. S1A) ([19]). A human APP-C99-GFP reporter was introduced to enable the measurement of Aβ peptides in the conditioned media of the cells to monitor γ-secretase activity. The assay was established in a 96-well format.
Conditional Psen1/2 double KO mice were crossed with conditional Aph1ABC triple KO mice ([29], [52], [58], [59]). At embryonic day 7.5, embryos were dissected and dissociated, and cells were plated in the presence of Dulbecco’s modified Eagle’s medium (DMEM)/F12 50% fetal calf serum (FCS) (Invitrogen). Primary MEFs were immortalized by transduction with LargeT antigen. Psen1/2 double KO/Aph1ABC triple KO MEFs were generated by transduction with a Cre-GFP–expressing adenoviral vector, and GFP-positive MEFs were sorted by fluorescence-activated cell sorting analysis. Psen1/2 Aph1ABC-deficient MEFs were maintained in DMEM/f12 10% FCS. To rescue γ-secretase expression, Psen1/2 double KO/Aph1ABC triple KO MEFs were transduced using Murine Stem Cell Virus retroviral vector system (pMSCV) viral vectors (Clontech) containing the human coding sequences of the different PSEN and APH1 homologs and the zeocin selection marker. An Internal Ribosome Entry Site sequence was cloned between the coding sequences for PSEN and APH1 to ensure co-expression of both proteins. Stable transfected cell lines were selected using 500-μg/ml zeocin (Invitrogen). […]
The number of plated cells and incubation times were determined in respect to linearity of Aβ peptide secretion, the dynamic range of Aβ peptide quantification in the medium, and sensitivity to dimethylsulfoxide (DMSO). […] The cell viability was assessed using the CellTiter-Glo Luminescent assay (Promega) that measures ATP production. […]

Test [2] has as its target T2, PSEN1-APH1B γ-secretase complex (Homo sapiens, UniProt P49768).
T2 construct: expressed in transfected cells; host or cells: Psen1/2 double KO/Aph1ABC triple KO MEFs, pMSCV retroviral PSEN-IRES-APH1
The test is described as follows: Aβ40 secretion by MEF cell line expressing only PSEN1-APH1B γ-secretase (APP-C99-GFP reporter). To be noted: 8 h, Beerse site unless otherwise indicated, read-out: IC50, Aβ40 peptides.
Text: as §1
Conditional Psen1/2 double KO mice were crossed with conditional Aph1ABC triple KO mice ([29], [52], [58], [59]). At embryonic day 7.5, embryos were dissected and dissociated, and cells were plated in the presence of Dulbecco’s modified Eagle’s medium (DMEM)/F12 50% fetal calf serum (FCS) (Invitrogen). Primary MEFs were immortalized by transduction with LargeT antigen. Psen1/2 double KO/Aph1ABC triple KO MEFs were generated by transduction with a Cre-GFP–expressing adenoviral vector, and GFP-positive MEFs were sorted by fluorescence-activated cell sorting analysis. Psen1/2 Aph1ABC-deficient MEFs were maintained in DMEM/f12 10% FCS. To rescue γ-secretase expression, Psen1/2 double KO/Aph1ABC triple KO MEFs were transduced using Murine Stem Cell Virus retroviral vector system (pMSCV) viral vectors (Clontech) containing the human coding sequences of the different PSEN and APH1 homologs and the zeocin selection marker. An Internal Ribosome Entry Site sequence was cloned between the coding sequences for PSEN and APH1 to ensure co-expression of both proteins. Stable transfected cell lines were selected using 500-μg/ml zeocin (Invitrogen). Four different combinations were made: PSEN1 and APH1AL, PSEN1 and APH1B, PSEN2 and APH1AL, and PSEN2 and APH1B. These cell lines were transduced with pMSCV viral vectors (Clontech) expressing APP-C99-GFP-puromycin. After puromycin selection (5 μg/ml), GFP-positive cells were selected through FACS sorting. For the alanine mutagenesis experiment, pMSCV PSEN1-APH1A viral vectors were generated by using a long PCR-based QuikChange strategy (Stratagene). Stable cell lines without clonal selection were generated for each mutant as described above. All cell lines were regularly tested for the absence of mycoplasma and used for maximum 20 passages in culture.
The number of plated cells and incubation times were determined in respect to linearity of Aβ peptide secretion, the dynamic range of Aβ peptide quantification in the medium, and sensitivity to dimethylsulfoxide (DMSO). […] MEF cells were plated in DMEM F12 supplemented with 10% FCS at 10,000 cells per well in 96-well clear bottom plates in the late afternoon and cultured for 16 h at 37 °C, 5% CO2. In the morning of the second day, the medium was replaced with 60 μl of DMEM/F12 supplemented with 2% FCS, and GSI or DMSO (controls) were added. Compounds were tested in serial dilutions with concentrations ranging from […] to 0.1 nM with 3-fold changes. The final concentration of DMSO in all wells was 0.2%. Plates were put in the incubator again at 37 °C, 5% CO2. After 8 h, the culture media were collected, and 30 μl was used to measure Aβ40 peptides. The cell viability was assessed using the CellTiter-Glo Luminescent assay (Promega) that measures ATP production. All screens were performed at one site, and reported IC50 values throughout the manuscript are from this site (Beerse) unless otherwise indicated.
Standard 96-well SECTOR plates (MSD) were coated with 1.5 μg/ml anti-Aβ JRFcAβ40/28 capture antibody in a final volume of 50 μl of PBS 0.05% Tween 20.

For test [3], the target named is T3, PSEN1 M233A–APH1A γ-secretase complex (Homo sapiens, UniProt P49768, M233A).
T3 construct: expressed in transfected cells; host or cells: Psen1/2 double KO/Aph1ABC triple KO MEFs, pools without clonal selection
Put plainly: Aβ40 secretion, MEF cell pool restored with PSEN1 M233A–APH1A. To be noted: decimal comma; for IC50: PSEN1 M233A (TM5)–APH1A cell pool, N = 3 to 4, mean (95% CI). As for the experimental part:
(§2) We turned to experimental site–directed mutagenesis and selected a series of amino acids (Fig. 3) in the entrance channel for mutation to alanine. […] More importantly, they were all enzymatically active as shown by the secretion of Aβ40 in the supernatants of the cell cultures (Fig. 3B).
(§3) Conditional Psen1/2 double KO mice were crossed with conditional Aph1ABC triple KO mice ([29], [52], [58], [59]). At embryonic day 7.5, embryos were dissected and dissociated, and cells were plated in the presence of Dulbecco’s modified Eagle’s medium (DMEM)/F12 50% fetal calf serum (FCS) (Invitrogen). Primary MEFs were immortalized by transduction with LargeT antigen. Psen1/2 double KO/Aph1ABC triple KO MEFs were generated by transduction with a Cre-GFP–expressing adenoviral vector, and GFP-positive MEFs were sorted by fluorescence-activated cell sorting analysis. Psen1/2 Aph1ABC-deficient MEFs were maintained in DMEM/f12 10% FCS. To rescue γ-secretase expression, Psen1/2 double KO/Aph1ABC triple KO MEFs were transduced using Murine Stem Cell Virus retroviral vector system (pMSCV) viral vectors (Clontech) containing the human coding sequences of the different PSEN and APH1 homologs and the zeocin selection marker. An Internal Ribosome Entry Site sequence was cloned between the coding sequences for PSEN and APH1 to ensure co-expression of both proteins. Stable transfected cell lines were selected using 500-μg/ml zeocin (Invitrogen). Four different combinations were made: PSEN1 and APH1AL, PSEN1 and APH1B, PSEN2 and APH1AL, and PSEN2 and APH1B. These cell lines were transduced with pMSCV viral vectors (Clontech) expressing APP-C99-GFP-puromycin. […]
(§4) The number of plated cells and incubation times were determined in respect to linearity of Aβ peptide secretion, the dynamic range of Aβ peptide quantification in the medium, and sensitivity to dimethylsulfoxide (DMSO). […] The cell viability was assessed using the CellTiter-Glo Luminescent assay (Promega) that measures ATP production. […] We however measured five compounds at the Leuven site and noticed that absolute IC50 values were different (Fig. S2). […]

Test [4] has as its target T4, PSEN1 W165A–APH1A γ-secretase complex (Homo sapiens, UniProt P49768+Q92542+Q96BI3+Q9NZ42, W165A).
T4 construct: expressed in transfected cells; host or cells: Psen1/2 double KO/Aph1ABC triple KO MEFs, pools without clonal selection
Put plainly: Aβ40 secretion, MEF cell pool restored with PSEN1 W165A–APH1A. To be noted: PSEN1 W165A (TM3)–APH1A cell pool; N = 3 to 4; mean (95% CI); decimal comma. As for the experimental part:
as §2, §3, §4

The target of test [5] is T5, PSEN1 W165A–APH1A γ-secretase complex (Homo sapiens, UniProt P49768, W165A).
T5 construct: expressed in transfected cells; host or cells: Psen1/2 double KO/Aph1ABC triple KO MEFs, pools without clonal selection
The description is as above. To be noted: decimal comma. The method, then: as §2, §3, §4

Molecules are shown by their SMILES.

Broadly, the IC50 is the concentration at which inhibition is half-maximal. Take `O=S(=O)(c1ccc(Cl)cc1)N1[C@H]2CC[C@@H]([C@H]1c1ccc(C(F)(F)F)cc1)[C@@H](O)C2` [(+)-9b]: the IC50 in test [1] came out at 1670 nM; in test [2], 6 nM; in test [3], 0.462 µM; in test [4] it was 0.102 µM.

Take `C[C@H](NC(=O)Cc1cc(F)cc(F)c1)C(=O)N[C@H](C(=O)OC(C)(C)C)c1ccccc1` [DAPT]: the IC50 in test [3] was determined as 0.449 µM; in test [5] (PSEN1 W165A (TM3)–APH1A cell pool, N = 3 to 4, mean (95% CI)), 0.304 µM. Further, the “IC50 fold change to WT” value was 2,658 fold in test [3] (PSEN1 M233A–APH1A cell pool) and 1,802 fold in test [5] (PSEN1 W165A–APH1A cell pool).
